Measured values reported in patent US4837316A, “Alkylamide derivatives with H2 -receptor antagonistic and cytoprotective action” (Fujirebio Kabushiki Kaisha, priority 1985, dated 1989).

How the values were obtained:
[1] = target: T1, Histamine H2-receptor (Cavia porcellus, UniProt P47747); assay: Histamine H2-receptor antagonistic action (isolated right atrium, histamine response); settings: isolated guinea-pig right atrium, 32° C., tested compound 1×10^-6 M or 1×10^-7 M, Van Rossum method; for Kb: read-out: pA2 (converted)
T1 construct: the right atrium was isolated rapidly; from tissue; host or cells: guinea pig right atrium (isolated organ)
T1 sequence (P47747 whole entry): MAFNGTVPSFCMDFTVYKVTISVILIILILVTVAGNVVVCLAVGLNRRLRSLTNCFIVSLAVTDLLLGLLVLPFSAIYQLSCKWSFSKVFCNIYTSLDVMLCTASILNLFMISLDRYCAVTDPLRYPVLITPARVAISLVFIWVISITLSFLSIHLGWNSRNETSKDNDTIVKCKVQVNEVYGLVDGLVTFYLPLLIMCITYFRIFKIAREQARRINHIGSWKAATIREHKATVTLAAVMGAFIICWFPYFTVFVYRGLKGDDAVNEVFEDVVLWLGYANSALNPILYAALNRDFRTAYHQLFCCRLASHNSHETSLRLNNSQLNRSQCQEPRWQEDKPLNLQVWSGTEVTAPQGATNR
Experimental: Histamine H2 -receptor antagonistic actions of the exemplified compounds were measured. Male Guinea-Pig weighing 300 to 350 g was killed by a blow on the head. After thoracotomy, the right atrium was isolated rapidly, and the surrounding tissues of the right atrium was carefully dissected. The preparation was mounted isometrically in 30 ml organ bath containing an oxygenated (O2 95%+CO2 5%) Krebs-Henselite solution at 32° C. 1 g of resting tension was loaded through the experiment. Contraction of the right atrium to histamine was measured with a force-displacement transducer, and heart rate was measured with a heart rate meter. After the control dose-response curve in the presence of tested compound (1×10^-6 M or 1×10^-7 M) was determined.
The pA2 value of each compound was determined from these two curves by the method of J. M. Van Rossum (Arch. Int. Pharmacodyn. Ther 143-299 (1963)).

[2] = system: gastric mucosal leasion; assay: Cytoprotective action (gastric mucosal lesion by necrotizing agent 0.4N HCl+50% EtOH); format: in vivo, Male Donryu rats; settings: Rattus norvegicus, po; 10 mg/kg P.O., 30 minutes before 5 ml/kg 0.4N HCl+50% EtOH; stomach taken 1 hour after; read-out: Repression % (inhibition % of total area of gastric mucosal leasion vs control)
Experimental: Cytoprotective actions of the exemplified compounds were examined.
Male Donryu rats weighing 150-250 g were used after fasting for 24 hours. 10 mg/kg P.O. of the test compound was administrated, and 5 ml/kg of a necrotizing agent (0.4N HCl+50% EtOH) was orally administrated after 30 minutes. After 1 hour from the administration of the necrotizing agent, its stomach was dissected out, and fixed with formalin. Total area of gastric mucosal leasion was measured, and compared with a control group to determine inhibition %.

| SMILES | Kb [1] [µM] | inhibition in vivo at 10 mg/kg [2] [%] | pA2 [1] |
| --- | --- | --- | --- |
| COc1ccc(CSCC(=O)NCCCOc2cccc(CN3CCCCC3)c2)nc1 [Compound 79] | 0.00794 | 53 |  |
| Cc1ccc(CSCC(=O)NCCCOc2cccc(CN3CCCCC3)c2)s1 [Compound 112, N-[3-{3-(piperidinomethyl)phenoxy}propyl]-2-{(5methyl-2-thienyl)methylthio}acetamide] | 0.0158 |  |  |
| CC(SCC(=O)NCCCOc1cccc(CN2CCCCC2)c1)c1ccco1 (centres unmarked) [Compound 58, N-[3-{3-(piperidinomethyl)phenoxy}propyl]-2-{1-(2-furyl)ethylthio}acetamide] | 0.0316 |  |  |
| NC(N)=Nc1nc(CSCCNC(=O)CSCC2CCCCC2)cs1 [Compound 107] | 0.794 | 52.3 |  |
| O=C(CSCc1ccco1)NCCCOc1cc(CN2CCCCC2)ccn1 [Compound 100] | 0.1 | 35 |  |
| O=C(CSCc1ccc(Cl)s1)NCCCOc1cccc(CN2CCCCC2)c1 [Compound 113, N-[3-{(piperidinomethyl)phenoxy}propyl]-2-{(5-chloro-2-thienyl)methylthio}acetamide] | 0.0251 |  |  |
| O=C(C[S+]([O-])Cc1ccco1)NCCCOc1cccc(CN2CCCCC2)c1 (centres unmarked) [Compound 46, N-[3-[3-(piperidinomethyl)phenoxy}propyl]-2-(furfurylsulfinyl)acetamide] |  | 72 |  |
| NC(N)=Nc1nc(CSCCNC(=O)CSCc2ccoc2)cs1 [Compound 104] | 0.2 | 50.6 |  |
| O=C(CSCc1ccco1)NCCSCc1ccc(CN2CCCCC2)o1 [Compound 89] |  | 46 |  |
| NC(N)=Nc1nc(CSCCNC(=O)CSCc2ccccc2)cs1 [Compound 105] | 0.0794 |  |  |
| O=C(CSCc1ccc(C(=O)O)cc1)NCCCOc1cccc(CN2CCCCC2)c1 [Compound 48, N-[3-{3-(piperidinomethyl)phenoxy}propyl]-2-(4-carboxylbenzylthio)acetamide] | 0.0316 |  |  |
| O=C(CSCc1ccsc1Cl)NCCCOc1cccc(CN2CCCCC2)c1 [Compound 114, N-[3-{3-(piperidinomethyl)phenoxy}propyl]-2-{(2-chloo-3-thienyl)methylthio}acetamide] | 0.0398 |  |  |
| NC(N)=Nc1nc(CSCCNC(=O)CSCc2ccc3ccccc3c2)cs1 [Compound 108] |  | 51.2 |  |
| CC(=O)Nc1ccsc1CSCC(=O)NCCCOc1cccc(CN2CCCCC2)c1 [Compound 116, N-[3-{3-(piperidinomethyl)phenoxy}propyl]-2-{(3-acetamide-2-thienyl)methylthio}acetamide] | 0.0316 |  |  |
| Cc1ccc(CSCC(=O)NCCCOc2cccc(CN3CCCCC3)c2)o1 [Compound 69, N-[3-{3-(piperidinomethyl)phenoxy}propyl]-2-(5-methyl-furfurylthio)acetamid] | 0.00398 | 59 |  |
| O=C(CSCc1ccccc1)NCCCOc1cccc(CN2CCCCC2)c1 [Compound 1, N-[3-{3-(piperidinomethyl)phenoxy}propyl]-2-(benzylthio)acetamide] | 0.0316 | 59 |  |
| O=C(CSCc1ccco1)NCCSCc1ccc(CN2CCCCC2)s1 [Compound 94] | 0.316 |  |  |
| CC1CCCCN1Cc1cccc(OCCCNC(=O)CS(=O)(=O)Cc2ccoc2)c1 (centres unmarked) [Compound 74] | 0.631 | 50 |  |
| CC1CCCN(Cc2cccc(OCCCNC(=O)CS(=O)(=O)Cc3ccoc3)c2)C1 (centres unmarked) [Compound 73] | 0.0501 | 88 |  |
| COC(=O)c1ccc(CSCC(=O)NCCCOc2cccc(CN3CCCCC3)c2)o1 [Compound 75, N-[3-{3-(piperidinomethyl)phenoxy}propyl]-2-{(5-methoxycarbonyl)furfurylthio}acetamide] | 0.02 |  |  |

| SMILES | Kb [1] [µM] | inhibition in vivo at 10 mg/kg [2] [%] | pA2 [1] |
| --- | --- | --- | --- |
| Cc1cccc(CSCC(=O)NCCCOc2cccc(CN3CCCCC3)c2)n1 [Compound 86] | 0.0251 |  |  |
| O=C(CSCc1ccc2ccccc2c1)NCCCOc1cccc(CN2CCCCC2)c1 [Compound 21, N-[3-{3-(piperidinomethyl)phenoxy}propyl]-2-(2-naphthylmethylthio)acetamide] |  | 60 |  |
| O=C(CSCc1ccoc1)NCCCOc1cccc(CN2CCCCC2)c1 [Compound 57, N-[3-{3-(piperidinomethyl)phenoxy}propyl]-2-(3-furylmethylthio)acetamide] | 0.0316 | 69 |  |
| O=C(CCCSCc1ccccc1)NCCCOc1cccc(CN2CCCCC2)c1 [Compound 30] |  | 62 |  |
| CC1CCN(Cc2cccc(OCCCNC(=O)CS(=O)(=O)Cc3ccoc3)c2)CC1 [Compound 72] | 0.1 | 60 |  |
| O=C(CSCc1cccs1)NCCCOc1cccc(CN2CCCCC2)c1 [Compound 20] |  | 45 |  |
| O=C(CSCc1cccc(Cl)n1)NCCCOc1cccc(CN2CCCCC2)c1 [Compound 82, N-[3-{3-(piperidinomethyl)phenoxy}propyl]-2-(6-chloro-2-pyridylmethylthio)acetamide] | 0.02 | 61 |  |
| O=C(CSCC1CCCCC1)NCCCOc1cccc(CN2CCCCC2)c1 [Compound 16, N-[3-{3-(piperidinomethyl)phenoxy}propyl]-2-(cyclohexylmethylthio)acetamide] | 0.0126 |  |  |
| O=C(CCCCCSCc1ccccc1)NCCCOc1cccc(CN2CCCCC2)c1 [Compound 35, N-[3-{3-(piperidinomethyl)phenoxy}propyl]-6-(benzylthio)hexylamide] |  | 61 |  |
| O=C(CSCCCc1ccccc1)NCCCOc1cccc(CN2CCCCC2)c1 [Compound 14, N-[3-{3-(piperidinomethyl)phenoxy}propyl]-2-(3-phenylpropyl-1-thio)acetamide] |  | 55 |  |
| O=C(CSCc1ccco1)NCCSCc1ccc(C=CCN2CCCC2)s1 [Compound 93] |  | 43 |  |
| O=C(CSCc1ccco1)NCCCOc1cccc(CN2CCCCC2)c1 [Compound 19, N-[3-{3-(piperidinomethyl)phenoxy}propyl]-2-(furfurylthio)acetamide] | 0.0501 | 63 |  |
| O=C(C[S+]([O-])Cc1ccccc1)NCCCOc1cccc(CN2CCCCC2)c1 (centres unmarked) [Compound 44, N-[3-{3-(piperidinomehtyl)phenoxy}propyl]-2-(benzylsulfinyl)acetamide] | 0.251 | 73 |  |
| NC(N)=Nc1nc(CSCCNC(=O)CSCc2cccs2)cs1 [Compound 106] | 0.2 |  |  |
| O=C(CS(=O)(=O)Cc1ccccc1)NCCCOc1cccc(CN2CCCCC2)c1 [Compound 45, N-[3-{3-(piperidinomethyl)phenoxy}propyl]-2-(benzylsulfonyl)acetamide] |  | 72 |  |
| O=C(CS(=O)(=O)Cc1ccco1)NCCCOc1cccc(CN2CCCCC2)c1 [Compound 47, N-[3-[3-(piperidinomethyl)phenoxy]propyl]-2-(furfurylsulfonyl)acetamide] |  | 85 |  |
| COc1ccc(CSCC(=O)NCCCOc2cccc(CN3CCCCC3)c2)cc1 [Compound 12, N-[3-{3-(piperidinomethyl)phenoxy}propyl]-2-(4-methoxybenzylthio)acetamide] | 0.0501 |  |  |
| NC(N)=Nc1nc(CSCCNC(=O)CSCc2ccccn2)cs1 [Compound 109] |  |  | 7.6 |
| NC(N)=Nc1nc(CSCCNC(=O)CSCc2ccco2)cs1 [Compound 110] | 0.0794 | 58 |  |
